In the NIST ThermoML archive (doi:10.1021/je060271a):
± gives the expanded uncertainty stated by the source.

Conditions: Liquid, Vibrating tube method

CCCCCCC(=O)OCC(COC(=O)CCCCCC)(COC(=O)CCCCCC)COC(=O)CCCCCC [pentaerythritol tetraheptanoate]
Conditions | mass density [kg/m3]
343.16 K, 13701 kPa | 950.5 ± 1.2
343.16 K, 13714 kPa | 950.6 ± 1.2
343.16 K, 13726 kPa | 950.6 ± 1.2
343.16 K, 13738 kPa | 950.7 ± 1.2
343.16 K, 13753 kPa | 950.7 ± 1.2
343.16 K, 13764 kPa | 950.6 ± 1.2
343.16 K, 13779 kPa | 950.7 ± 1.2
343.16 K, 13792 kPa | 950.7 ± 1.2
343.16 K, 13806 kPa | 950.8 ± 1.2
343.16 K, 13818 kPa | 950.6 ± 1.2
343.16 K, 14528 kPa | 951.2 ± 1.2
343.16 K, 14542 kPa | 951.2 ± 1.2
343.16 K, 16080 kPa | 952.4 ± 1.2
343.16 K, 16100 kPa | 952.3 ± 1.2
343.16 K, 16118 kPa | 952.2 ± 1.2
343.16 K, 32564 kPa | 962.8 ± 1.2
343.16 K, 32603 kPa | 963 ± 1.2
343.16 K, 32650 kPa | 963.1 ± 1.2
343.16 K, 32688 kPa | 963 ± 1.2
343.17 K, 14556 kPa | 951.3 ± 1.2
343.17 K, 14573 kPa | 951.2 ± 1.2
343.17 K, 14631 kPa | 951.4 ± 1.2
343.17 K, 14645 kPa | 951.3 ± 1.2
343.17 K, 14662 kPa | 951.3 ± 1.2
343.17 K, 14676 kPa | 951.3 ± 1.2
343.17 K, 14690 kPa | 951.3 ± 1.2
343.17 K, 14707 kPa | 951.4 ± 1.2
343.17 K, 14721 kPa | 951.4 ± 1.2
343.17 K, 14735 kPa | 951.3 ± 1.2
343.17 K, 14750 kPa | 951.3 ± 1.2
343.17 K, 14767 kPa | 951.3 ± 1.2
343.17 K, 14782 kPa | 951.4 ± 1.2
343.17 K, 14796 kPa | 951.5 ± 1.2
343.17 K, 14814 kPa | 951.5 ± 1.2
343.17 K, 14828 kPa | 951.3 ± 1.2
343.17 K, 14843 kPa | 951.4 ± 1.2
343.17 K, 14858 kPa | 951.4 ± 1.2
343.17 K, 14873 kPa | 951.5 ± 1.2
343.17 K, 14890 kPa | 951.5 ± 1.2
343.17 K, 14902 kPa | 951.5 ± 1.2
343.17 K, 14922 kPa | 951.4 ± 1.2
343.17 K, 14937 kPa | 951.4 ± 1.2
343.17 K, 14952 kPa | 951.5 ± 1.2
343.17 K, 14966 kPa | 951.6 ± 1.2
343.17 K, 14984 kPa | 951.7 ± 1.2
343.17 K, 14999 kPa | 951.6 ± 1.2
343.17 K, 15013 kPa | 951.5 ± 1.2
343.17 K, 15032 kPa | 951.7 ± 1.2
343.17 K, 15048 kPa | 951.5 ± 1.2
343.17 K, 15063 kPa | 951.4 ± 1.2
343.17 K, 15077 kPa | 951.6 ± 1.2
343.17 K, 15092 kPa | 951.6 ± 1.2
343.17 K, 15110 kPa | 951.6 ± 1.2
343.17 K, 15125 kPa | 951.6 ± 1.2
343.17 K, 15140 kPa | 951.7 ± 1.2
343.17 K, 15158 kPa | 951.6 ± 1.2
343.17 K, 15173 kPa | 951.7 ± 1.2
343.17 K, 15191 kPa | 951.6 ± 1.2
343.17 K, 15206 kPa | 951.6 ± 1.2
343.17 K, 15221 kPa | 951.7 ± 1.2
343.17 K, 15240 kPa | 951.7 ± 1.2
343.17 K, 15255 kPa | 951.6 ± 1.2
343.17 K, 15270 kPa | 951.8 ± 1.2
343.17 K, 15286 kPa | 951.7 ± 1.2
343.17 K, 15305 kPa | 951.7 ± 1.2
343.17 K, 15320 kPa | 951.9 ± 1.2
343.17 K, 15338 kPa | 951.6 ± 1.2
343.17 K, 15354 kPa | 951.8 ± 1.2
343.17 K, 15369 kPa | 951.6 ± 1.2
343.17 K, 15387 kPa | 951.9 ± 1.2
343.17 K, 15403 kPa | 951.8 ± 1.2
343.17 K, 15419 kPa | 952 ± 1.2
343.17 K, 15437 kPa | 951.8 ± 1.2
343.17 K, 15453 kPa | 951.8 ± 1.2
343.17 K, 15469 kPa | 951.8 ± 1.2
343.17 K, 15488 kPa | 951.9 ± 1.2
343.17 K, 15504 kPa | 951.9 ± 1.2
343.17 K, 15520 kPa | 951.9 ± 1.2
343.17 K, 15536 kPa | 951.9 ± 1.2
343.17 K, 15555 kPa | 951.9 ± 1.2
343.17 K, 15571 kPa | 952 ± 1.2
343.17 K, 15587 kPa | 951.9 ± 1.2
343.17 K, 15606 kPa | 951.8 ± 1.2
343.17 K, 15622 kPa | 952 ± 1.2
343.17 K, 15638 kPa | 952.1 ± 1.2
343.17 K, 15655 kPa | 952.1 ± 1.2
343.17 K, 15674 kPa | 952.1 ± 1.2
343.17 K, 15691 kPa | 952 ± 1.2
343.17 K, 15707 kPa | 952 ± 1.2
343.17 K, 15724 kPa | 952.2 ± 1.2
343.17 K, 15743 kPa | 952 ± 1.2
343.17 K, 15759 kPa | 952.1 ± 1.2
343.17 K, 15778 kPa | 952 ± 1.2
343.17 K, 15795 kPa | 952.1 ± 1.2
343.17 K, 15812 kPa | 952.2 ± 1.2
343.17 K, 15831 kPa | 952.1 ± 1.2
343.17 K, 15848 kPa | 952.2 ± 1.2
343.17 K, 15865 kPa | 952.2 ± 1.2
343.17 K, 15884 kPa | 952.1 ± 1.2
343.17 K, 15901 kPa | 952.2 ± 1.2
343.17 K, 15918 kPa | 952.3 ± 1.2
343.17 K, 15938 kPa | 952.3 ± 1.2
343.17 K, 15955 kPa | 952.2 ± 1.2
343.17 K, 15972 kPa | 952.2 ± 1.2
343.17 K, 15989 kPa | 952.3 ± 1.2
343.17 K, 16009 kPa | 952.3 ± 1.2
343.17 K, 16025 kPa | 952.2 ± 1.2
343.17 K, 16042 kPa | 952.3 ± 1.2
343.17 K, 16062 kPa | 952.2 ± 1.2
343.18 K, 14586 kPa | 951.4 ± 1.2
343.18 K, 14600 kPa | 951.2 ± 1.2
343.18 K, 14617 kPa | 951.3 ± 1.2
